# Test results taken from patent US9423396B2, “Bodipy structure fluorescence probes for diverse biological applications” (National University of Singapore, priority 2011, dated 2016).
# What was measured:
# [1] = Spectroscopic measurements (absorption, emission, quantum yield, extinction coefficient); type: physicochemical
# [2] = test system: Beta TC-6 cells; assay: High throughput cell-based screening on acinar, Alpha TC-1 and Beta TC-6 cells; design: species or system mouse; conditions: 1 μM, 1 hr to 48 hours, 384-well plates
# Procedure: To discover pancreatic islet selective probes, we expanded the other two types of BODIPY library generated from the original GY (Glucagon Yellow) structure. We started with high throughput cell-based screening using mouse acinar cells composed of exocrine tissue, mouse Alpha TC-1 cells and Beta TC-6 cells composed of endocrine pancreas islets. Those three different types of cells were prepared side by side in 384-well plates and incubated with 1 μM of BODIPY compounds for different incubation times ranging from 1 hr to 48 hours. The fluorescence images were acquired on an automated imaging microscope system ImageXpress Micro™. The fluorescence intensity of the stained cells was analyzed using MetaXpress® image processing software.
# [3] = absorption maximum, BDNCA library
# [4] = difference of emission and absorption maxima
# [5] = extinction coefficient, BDNCA library; in M-1 cm-1 (unit assumed)
# [6] = fluorescence emission maximum, BDNCA library
Compound,Qunt. Yield ([1]; BDNCA library),"Abs ([1]; BDNCA library, absorption)","Flu-Abs ([1]; BDNCA library, difference emission minus absorption)","ε ([1]; BDNCA library, extinction coefficient; in M-1 cm-1 (unit assumed))","Flu ([1]; BDNCA library, fluorescence emission)",staining of alpha cells and beta cells compared with acinar cells [2],"Abs [1, 3]","Flu-Abs [1, 4]","ε [1, 5]","Flu [1, 6]","Qunt. Yield ([1]; quantum yield, BDNCA library)"
Cc1cc(/C=C/c2ccc(-c3ccccc3)cc2)n2c1C(c1ccc(NC(=O)CCl)cc1)=C1C=CC=[N+]1[B-]2(F)F [BDNCA-5],0.09,566 nm,23,"39,542",589,stained either both alpha cells and beta cells or beta cells only as compared with acinar cells,–,–,–,–,–
CC1=CC(/C=C/c2cccc(C)c2C)=[N+]2C1=C(c1ccc(NC(=O)CCl)cc1)c1cccn1[B-]2(F)F [BDNCA-349],–,–,–,–,–,–,556 nm,22,"36,247",578,0.03
COc1ccc(/C=C/C2=[N+]3C(=C(c4ccc(NC(=O)CCl)cc4)c4cccn4[B-]3(F)F)C(C)=C2)cc1[N+](=O)[O-] [BDNCA-350],–,–,–,–,–,–,560 nm,21,"34,874",581,0.07
CC1=CC(/C=C/c2ncc[nH]2)=[N+]2C1=C(c1ccc(NC(=O)CCl)cc1)c1cccn1[B-]2(F)F [BDNCA-353],–,–,–,–,–,–,570 nm,44,"15,652",614,0.01
Cc1cc(/C=C/c2ccc(SC(F)(F)F)cc2)n2c1C(c1ccc(NC(=O)CCl)cc1)=C1C=CC=[N+]1[B-]2(F)F [BDNCA-363],–,–,–,–,–,–,558 nm,18,"41,190",576,0.08
CC1=CC(/C=C/c2ccccc2OC(F)(F)F)=[N+]2C1=C(c1ccc(NC(=O)CCl)cc1)c1cccn1[B-]2(F)F [BDNCA-365],–,–,–,–,–,–,553 nm,16,"45,584",569,0.07
COc1cc(O)c(/C=C/C2=[N+]3C(=C(c4ccc(NC(=O)CCl)cc4)c4cccn4[B-]3(F)F)C(C)=C2)c(OC)c1 [BDNCA-366],–,–,–,–,–,–,579 nm,50,"38,444",629,0.02
CC1=CC(/C=C/c2cc3ccccc3o2)=[N+]2C1=C(c1ccc(NC(=O)CCl)cc1)c1cccn1[B-]2(F)F [BDNCA-368],–,–,–,–,–,–,578 nm,23,"21,968",601,0.03
CC1=CC(/C=C/c2ccc(C)cc2C)=[N+]2C1=C(c1ccc(NC(=O)CCl)cc1)c1cccn1[B-]2(F)F [BDNCA-370],–,–,–,–,–,–,507 nm,78,"34,050",585,0.08
COc1ccc(/C=C/c2cc(C)c3n2[B-](F)(F)[N+]2=CC=CC2=C3c2ccc(NC(=O)CCl)cc2)c(Cl)c1OC [BDNCA-372],–,–,–,–,–,–,565 nm,29,"69,474",594,0.13
CC1=CC(/C=C/c2c[nH]c3ccccc23)=[N+]2C1=C(c1ccc(NC(=O)CCl)cc1)c1cccn1[B-]2(F)F [BDNCA-375],–,–,–,–,–,–,591 nm,63,"21,968",654,0.02
Cc1cc(/C=C/c2ccc(N(C)C)c3ccccc23)n2c1C(c1ccc(NC(=O)CCl)cc1)=C1C=CC=[N+]1[B-]2(F)F [BDNCA-377],–,–,–,–,–,–,590 nm,–,"58,215",weak,weak
Cc1cc(/C=C/c2ccc(OCc3ccc(F)cc3)cc2)n2c1C(c1ccc(NC(=O)CCl)cc1)=C1C=CC=[N+]1[B-]2(F)F [BDNCA-378],–,–,–,–,–,–,566 nm,31,"92,540",597,0.16
CC1=CC(/C=C/c2ccccc2I)=[N+]2C1=C(c1ccc(NC(=O)CCl)cc1)c1cccn1[B-]2(F)F [BDNCA-384],–,–,–,–,–,–,555 nm,23,"60,686",578,0.11
CCOc1cc(/C=C/C2=[N+]3C(=C(c4ccc(NC(=O)CCl)cc4)c4cccn4[B-]3(F)F)C(C)=C2)ccc1O [BDNCA-397],–,–,–,–,–,–,573 nm,40,"38,444",613,0.01
CC1=CC(/C=C/c2cccc(B(O)O)c2)=[N+]2C1=C(c1ccc(NC(=O)CCl)cc1)c1cccn1[B-]2(F)F [BDNCA-404],–,–,–,–,–,–,556 nm,18,"18,124",574,0.03
Cc1cc(/C=C/c2cc(Cl)ccc2Cl)n2c1C(c1ccc(NC(=O)CCl)cc1)=C1C=CC=[N+]1[B-]2(F)F [BDNCA-407],–,–,–,–,–,–,555 nm,20,"42,288",575,0.07
Cc1cc(/C=C/c2ccc(Br)cc2)n2c1C(c1ccc(NC(=O)CCl)cc1)=C1C=CC=[N+]1[B-]2(F)F [BDNCA-409],–,–,–,–,–,–,557 nm,20,"87,597",577,0.14
CC1=CC(/C=C/C2CCCCC2)=[N+]2C1=C(c1ccc(NC(=O)CCl)cc1)c1cccn1[B-]2(F)F [BDNCA-414],–,–,–,–,–,–,524 nm,23,"49,428",547,0.09
CC1=CC(/C=C/C=C/c2ccco2)=[N+]2C1=C(c1ccc(NC(=O)CCl)cc1)c1cccn1[B-]2(F)F [BDNCA-417],–,–,–,–,–,–,519 nm,–,"13,730",weak,weak
CC1=CC(/C=C/c2cccs2)=[N+]2C1=C(c1ccc(NC(=O)CCl)cc1)c1cccn1[B-]2(F)F [BDNCA-423],–,–,–,–,–,–,569 nm,25,"61,510",594,0.10
CC1=CC(/C=C/c2ccc(-c3ccccc3)c(F)c2)=[N+]2C1=C(c1ccc(NC(=O)CCl)cc1)c1cccn1[B-]2(F)F [BDNCA-425],–,–,–,–,–,–,562 nm,21,"46,957",583,0.11
CC1=CC(/C=C/c2ccc(-c3ccc(Br)cc3)o2)=[N+]2C1=C(c1ccc(NC(=O)CCl)cc1)c1cccn1[B-]2(F)F [BDNCA-428],–,–,–,–,–,–,506 nm,151,"17,025",657,0.02
CCOc1ccc(/C=C/C2=[N+]3C(=C(c4ccc(NC(=O)CCl)cc4)c4cccn4[B-]3(F)F)C(C)=C2)cc1 [BDNCA-429],–,–,–,–,–,–,566 nm,33,"64,531",599,0.14
CC1=CC(/C=C/c2c(C)nn(C)c2C)=[N+]2C1=C(c1ccc(NC(=O)CCl)cc1)c1cccn1[B-]2(F)F [BDNCA-430],–,–,–,–,–,–,567 nm,34,"37,895",601,0.09
CC1=CC(/C=C/c2cccc(Oc3ccc(C(C)(C)C)cc3)c2)=[N+]2C1=C(c1ccc(NC(=O)CCl)cc1)c1cccn1[B-]2(F)F [BDNCA-435],–,–,–,–,–,–,556 nm,20,"61,510",576,0.13
CC1=CC(/C=C/c2ccc(Cl)c(F)c2)=[N+]2C1=C(c1ccc(NC(=O)CCl)cc1)c1cccn1[B-]2(F)F [BDNCA-437],–,–,–,–,–,–,556 nm,19,"47,506",575,0.09
COc1cc(/C=C/c2cc(C)c3n2[B-](F)(F)[N+]2=CC=CC2=C3c2ccc(NC(=O)CCl)cc2)ccc1OCCN1CCCC1 [BDNCA-458],–,–,–,–,–,–,569 nm,39,"25,538",608,0.06
